Test results published in US20230149558A1, “DUOCARMYCIN DERIVATIVE AND USE THEREOF” (The University of Tokyo, priority 2020, published 2023).

Tested on: HeLa S3 cells
Assay: Cytotoxicity of Duocarmycin SA and Duocarmycin SA-Valine (Cell Counting Kit-8)
Type: cell-based
Conditions: 1.0E-11 to 6.0E-07, 48 hours, FIG. 11
Procedure: In order to confirm the activities of Compound X (Duocarmycin SA) and Compound Y (Duocarmycin SA-Valin) shown in FIG. 9 and FIG. 10, cytotoxicity was confirmed using HeLa S3 cells.
The cells were seeded on a 96-well plate for cell culture, so that the cell count became 5×10^3 cells/well and the amount of the culture solution became 50 μL/well, and thereafter, the cells were cultured overnight. The concentration of Compound X or Compound Y was adjusted with a culture solution, so that the final concentration thereof became 600 nM. […]
The medium used in the overnight culture of the cells was exchanged with the prepared agent-diluted solution, and the cells were then cultured for 48 hours. […] The dosage and administration applied in the assay were determined in accordance with the instruction manuals included with the kit, and after addition of the reagent, the mixture was incubated for 1.5 hours at 37° C., in a CO2 incubator. Thereafter, the absorbance at 450 nm was measured, and a mean value was then calculated, followed by background collection. The control was set to be 100%, and the ratio of the cell growth under each condition to the control was calculated. […]

With Duocarmycin SA-Valine the “effect of suppressing cell growth (ratio of cell growth to control)” value was “higher effect of suppressing cell growth than Duocarmycin SA”.
